From US20240174659A1, “COMPOUNDS AND METHODS FOR YAP/TEAD MODULATION AND INDICATIONS THEREFOR” (Opna Bio SA, priority 2021, published 2024)

Tested on: TEAD-dependent transcription
Experiment: Inhibitor activity against TEAD-dependent transcription in a cell-based reporter assay (MSTO-211H+12XGTIIC luciferase)
Conditions: Homo sapiens; MSTO-211H+12XGTIIC cells, 24 hours incubation, luciferase luminescence normalized to cell viability fluorescence, geometric mean; read-out: MSTO-211H GMean IC50 (uM) Cell Assay Reporter Cell Variant: TEAD
Source text: Determine Inhibitor Activity Against TEAD-Dependent Transcription in a Cell-Based Reporter Assay
The human mesothelioma cell line MSTO-211H was stably transfected with a pGL4.21 plasmid containing a synthetic promoter with 12 copies of the GTIIC TEAD response element that drives the expression of a luciferase reporter gene^1 using Lipofectamine transfection reagent (Thermo Fisher). Transfected cells were selected using puromycin and single cell clones expressing this construct (referred to as MSTO-211H+12XGTIIC) were generated by limiting dilution. MSTO-211H cells was characterized by genetic alterations in key components of the Hippo pathway^2, resulting in up-regulation of YAP/TEAD-mediated transcription. […] To evaluate TEAD inhibitors, the MSTO-211H+12XGTIIC cell line was seeded in a 96-well plate in 50 μL of culture media at 1×10^4 cells per well and incubated at 37° C. overnight. Serial dilutions of compounds (in total volume of 50 μL of culture media) were added to the cells and incubated at 37° C. for 24 hours. Each plate included cells treated with DMSO as high controls and cells treated with 20 μM of the reference compound K-975 (a known TEAD inhibitor)^3 as low controls. Cell viability was assayed by the addition of 25 μL of CellTiter-Fluor reagent (Promega) followed by a 30-minute incubation at 37° C. and quantification of the fluorescence signal (Ex400/Em505). Subsequently, luciferase expression was assayed by the addition of 25 μL of ONE-Glo reagent (Promega) followed by a 10-minute incubation at room temperature and quantification of the luminescence signal. The luminescence signal was normalized to the fluorescence signal to correct for any loss in cell viability over the 24-hour compound incubation period. The percentage of inhibition of normalized luminescence signal, indicative of compound-mediated inhibition of TEAD-dependent transcription, at individual compound concentrations relative to high and low controls was calculated. The data were analyzed by using nonlinear regression to generate IC50 values for individual compounds.

Row | SMILES | IC50
1 | C=CC(=O)N1CCc2ccc(OCc3ccc(F)cc3)cc2C1 [P-0001, 1-(7-((4-fluorobenzyl)oxy)-3,4-dihydroisoquinolin-2(1H)-yl)prop-2-en-1-one] | 0.001 to 0.5 µM
2 | C=CC(=O)N1CCc2ccc(OCc3ccccc3)cc2C1 [P-0002, 1-(7-(benzyloxy)-3,4-dihydroisoquinolin-2(1H)-yl)prop-2-en-1-one] | 0.001 to 0.5 µM
3 | C=CC(=O)N1CCc2cccc(Nc3cccc(F)c3)c2C1 [P-0003, 1-(8-((3-fluorophenyl)amino)-3,4-dihydroisoquinolin-2(1H)-yl)prop-2-en-1-one] | 0.5 to 20 µM
4 | C=CC(=O)N1CCc2ccc(Nc3cccc(F)c3)cc2C1 [P-0004, 1-(7-((3-fluorophenyl)amino)-3,4-dihydroisoquinolin-2(1H)-yl)prop-2-en-1-one] | 0.001 to 0.5 µM
5 | C=CC(=O)N1CCc2cccc(Oc3cccc(F)c3)c2C1 [P-0005, 1-(8-(3-fluorophenoxy)-3,4-dihydroisoquinolin-2(1H)-yl)prop-2-en-1-one] | 0.001 to 0.5 µM
6 | C=CC(=O)N1CCc2ccc(Oc3cccc(F)c3)cc2C1 [P-0006, 1-(7-(3-fluorophenoxy)-3,4-dihydroisoquinolin-2(1H)-yl)prop-2-en-1-one] | 0.001 to 0.5 µM
7 | C=CC(=O)N1CCc2ccc(Oc3ccccc3)cc2C1 [P-0007, 1-(7-phenoxy-3,4-dihydroisoquinolin-2(1H)-yl)prop-2-en-1-one] | 0.001 to 0.5 µM
8 | C=CC(=O)N1CCc2ccc(Oc3ccc(F)cc3F)cc2C1 [P-0008, 1-(7-(2,4-difluorophenoxy)-3,4-dihydroisoquinolin-2(1H)-yl)prop-2-en-1-one] | 0.001 to 0.5 µM
9 | C=CC(=O)N1CCc2ccc(OC3CCOCC3)cc2C1 [P-0009, 1-(7-((tetrahydro-2H-pyran-4-yl)oxy)-3,4-dihydroisoquinolin-2(1H)-yl)prop-2-en-1-one] | 0.001 to 0.5 µM
10 | C=CC(=O)N1CCc2ccc(Nc3ccccc3)cc2C1 [P-0010, 1-(7-(phenylamino)-3,4-dihydroisoquinolin-2(1H)-yl)prop-2-en-1-one] | 0.001 to 0.5 µM
11 | C=CC(=O)N1CCc2ccc(Nc3ccnc(C(F)(F)F)c3)cc2C1 [P-0011, 1-(7-((2-(trifluoromethyl)pyridin-4-yl)amino)-3,4-dihydroisoquinolin-2(1H)-yl)prop-2-en-1-one] | 0.5 to 20 µM
12 | C=CC(=O)N1CCc2ccc(Nc3ccc(C(F)(F)F)nc3)cc2C1 [P-0012, 1-(7-((6-(trifluoromethyl)pyridin-3-yl)amino)-3,4-dihydroisoquinolin-2(1H)-yl)prop-2-en-1-one] | 0.5 to 20 µM
13 | C=CC(=O)N1CCc2ccc(Oc3ccc(F)cc3)cc2C1 [P-0013, 1-(7-(4-fluorophenoxy)-3,4-dihydroisoquinolin-2(1H)-yl)prop-2-en-1-one] | 0.001 to 0.5 µM
14 | C=CC(=O)N1CCc2ccc(Oc3cccc(Cl)c3)cc2C1 [P-0014, 1-(7-(3-chlorophenoxy)-3,4-dihydroisoquinolin-2(1H)-yl)prop-2-en-1-one] | 0.001 to 0.5 µM
15 | C=CC(=O)N1CCc2ccc(Oc3ccc(Cl)cc3)cc2C1 [P-0015, 1-(7-(4-chlorophenoxy)-3,4-dihydroisoquinolin-2(1H)-yl)prop-2-en-1-one] | 0.001 to 0.5 µM
16 | C=CC(=O)N1CCc2ccc(Oc3ccc(F)c(F)c3)cc2C1 [P-0016, 1-(7-(3,4-difluorophenoxy)-3,4-dihydroisoquinolin-2(1H)-yl)prop-2-en-1-one] | 0.001 to 0.5 µM
17 | C=CC(=O)N1CCc2ccc(Oc3cccc(C(F)(F)F)c3)cc2C1 [P-0017, 1-(7-(3-(trifluoromethyl)phenoxy)-3,4-dihydroisoquinolin-2(1H)-yl)prop-2-en-1-one] | 0.001 to 0.5 µM
18 | C=CC(=O)N1CCc2ccc(Oc3ccc(C(F)(F)F)cc3)cc2C1 [P-0018, 1-(7-(4-(trifluoromethyl)phenoxy)-3,4-dihydroisoquinolin-2(1H)-yl)prop-2-en-1-one] | 0.001 to 0.5 µM
19 | C=CC(=O)N1CCc2ccc(Oc3cccnc3)cc2C1 [P-019, 1-(7-(pyridin-3-yloxy)-3,4-dihydroisoquinolin-2(1H)-yl)prop-2-en-1-one] | 0.001 to 0.5 µM
